Like-named read-outs stand apart in the source and are kept apart here.
Tests used:
Liver cells [1] = conditions: Rat; cited from earlier work
Liver cells [2] = conditions: Dog; cited from earlier work
Liver cells [3] = conditions: Monkey; cited from earlier work
Liver cells [4] = conditions: Human; cited from earlier work
[5] = human, 0-144 hour, after lesinurad, cited from earlier work
[6] = Liver microsomes, Monkey; cited from earlier work
URAT-1 = biological target: T1, URAT-1 (Homo sapiens, UniProt Q96S37); assay: Inhibition of 14C-uric acid uptake in MDCK cells stably transfected with URAT-1 gene; assay type: cell-based; conditions: MDCK cells stably transfected with URAT-1, substrate 14C-uric acid 50 μM; read-out: IC50 of the inhibitory effect on URAT-1
T1 construct: expressed in transfected cells
T1 sequence (Q96S37 1-553): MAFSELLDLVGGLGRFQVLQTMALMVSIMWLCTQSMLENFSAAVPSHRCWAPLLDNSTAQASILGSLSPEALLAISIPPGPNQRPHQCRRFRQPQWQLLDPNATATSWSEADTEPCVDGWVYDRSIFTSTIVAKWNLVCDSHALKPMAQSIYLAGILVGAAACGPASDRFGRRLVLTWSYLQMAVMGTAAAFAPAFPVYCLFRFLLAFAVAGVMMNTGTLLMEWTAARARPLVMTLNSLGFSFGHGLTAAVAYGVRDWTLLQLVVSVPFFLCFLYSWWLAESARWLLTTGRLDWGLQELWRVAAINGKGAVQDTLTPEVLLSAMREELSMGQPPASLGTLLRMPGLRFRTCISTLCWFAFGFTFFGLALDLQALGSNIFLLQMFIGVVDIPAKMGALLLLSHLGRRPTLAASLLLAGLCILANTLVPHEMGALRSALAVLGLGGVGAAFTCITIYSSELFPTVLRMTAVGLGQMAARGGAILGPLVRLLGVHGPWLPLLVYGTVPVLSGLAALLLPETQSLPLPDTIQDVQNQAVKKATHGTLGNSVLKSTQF
Protocol: The IC50 values of the compounds in inhibiting uric acid reabsorption were determined using MDCK (canine kidney cell) cell line stably transfected with DRAT-1 (uric acid transporter) gene.
DRAT-1 (MDCK) cell line: MDCK cells stably transfected with URAT-1 gene.
Cell culture medium: MEM (minimum essential medium Eagle) medium supplemented with 10% FBS (fetal bovine serum), 1% sodium pyruvate and 250 μg/mL G418 (geneticin).
1) The supernatant of the cell culture medium was removed by aspiration and the cells were rinsed with 10 mL PBS (phosphate buffered saline solution).
2) Preheated trypsin was added into the rinsed cell culture flask, and then the flask was rotated to make the trypsin evenly cover the bottom of the flask and the cells were digested at room temperature.
3) 10-15 mL of culture medium was used to suspend the cells in each T150 flask. 0.1 mL of the cells was sucked out and 2-fold diluted with trypan blue solution, and then the cells were counted. […]
^14C labelled-uric acid solution was diluted and added into the cell plate to obtain a final concentration of 50 μM. […] After adding the scintillation liquid, the signal was read in a liquid scintillation counter Tri-Carb.
According to the luminescent data, the inhibitory effect of the compounds on URAT-1 was analyzed, and the percent inhibition was calculated. […]

human liver cells = assay: Metabolite detection after incubation in human liver cells for 120 minutes (LC-UV-MSn); assay type: in vitro ADME; conditions: for UV area percentage: 10 μM
Protocol: The objective of this experiment is detect the metabolites of the compounds after incubation in human liver cells for 120 minutes using LC-UV-MS^n (n=1-2). After data collection, MetaboLynx™ software was used to analyze MS and MS^2 data.
After the cells were incubated with the samples for 2 hours, protein was precipitated using acetonitrile containing formic acid and then the mixture was centrifuged. The supernatant was taken out and blow-dried with nitrogen, and then redissolved and injected for analysis.

[7] = Pharmacokinetics in cynomolgus monkeys after IV and PO administration; assay type: in vivo; conditions: for C0: read-out: Initial concentration C0; for Cmax: read-out: Peak concentration Cmax; for Mutual transformation between the two axially chiral isomers in vivo: circulation system; for Vd: read-out: Apparent volume of distribution Vdss; for clearance: read-out: Clearance rate Cl; for half-life: read-out: Half-life T1/2 (converted); for MRT inf: read-out: Residence time MRT0-inf; for Tmax: read-out: Time to peak Tmax
Protocol: 24 healthy adult male cynomolgus monkeys were divided into 8 groups (there were IV and PO groups for each compound) with 3 animals per group.
An appropriate amount of the samples was weighted and dissolved in a certain amount of DMSO by ultrasound, followed by addition of PEG400 solution to obtain clear solutions (DMSO/PEG400/H2O (5/40/55)) of the compounds to be tested with a concentration of 2 mg/mL for IV administration.
An appropriate amount of the samples was weighted and dissolved in a certain amount of DMSO by ultrasound, followed by addition of 0.5% MC solution to obtain suspensions (DMSO/0.5% MC (5/95)) of the compounds to be tested with a concentration of 2 mg/mL for PO administration.
24 male cynomolgus monkeys were divided into 8 groups with 3 animals per group, and the drugs were administered through IV and PO after the animals had been fasting overnight. The dose for IV administration was 2 mg/kg and the dosing volume was 1 mL/kg; the dose for PO administration was 10 mg/kg and the dosing volume was 5 mL/kg.
In the IV administration groups, approximately 200 μL of blood was collected 0.083, 0.25, 0.5, 1, 2, 4, 6, 8, and 24 hours after administration; the collected blood samples were added into anticoagulation tubes containing K2-EDTA and centrifuged at 3000 rpm for 15 minutes; the plasma was isolated and stored at −80° C. In the PO administration groups, the blood was collected 0.25, 0.5, 1, 2, 4, 6, 8, and 24 hours after administration, and other operations were the same as in the IV administration group. After the plasma samples were pre-treated to precipitate the protein, the drug concentration in the plasma was determined by LC/MS/MS method. The linear range of the analysis method was 20.00-6000 nM. In PO administration group, urine was collected 0-24 hours after administration, and the drug concentration in the urine was determined by LC/MS/MS method. The linear range of the analysis method was 20.00-6000 nM.

[8] = Solid stability test of the crystal form A of compound 1; assay type: physicochemical; conditions: high temperature, high humidity and strong light
Text: Samples placed under high temperature and high humidity conditions were sealed with aluminum foil paper and small holes were punched in the aluminum foil paper to ensure that the sample could fully contact with ambient air; samples placed under strong light conditions were sealed with threaded caps. The samples placed under different conditions were sampled and tested on the 5th day and 10th day (XRPD and HPLC), and the test results were compared with the initial test results obtained on day 0.

OAT-4 = biological target: T2, OAT-4 (Homo sapiens, UniProt Q9NSA0); assay: Inhibition of substrate uptake in MDCK cells overexpressing OAT-4; assay type: cell-based; conditions: MDCK-OAT4 cells
T2 construct: expressed in transfected cells; host or cells: MDCK (canine kidney) cells; the empty-vector control is pcDNA3.1
T2 sequence (Q9NSA0 1-550): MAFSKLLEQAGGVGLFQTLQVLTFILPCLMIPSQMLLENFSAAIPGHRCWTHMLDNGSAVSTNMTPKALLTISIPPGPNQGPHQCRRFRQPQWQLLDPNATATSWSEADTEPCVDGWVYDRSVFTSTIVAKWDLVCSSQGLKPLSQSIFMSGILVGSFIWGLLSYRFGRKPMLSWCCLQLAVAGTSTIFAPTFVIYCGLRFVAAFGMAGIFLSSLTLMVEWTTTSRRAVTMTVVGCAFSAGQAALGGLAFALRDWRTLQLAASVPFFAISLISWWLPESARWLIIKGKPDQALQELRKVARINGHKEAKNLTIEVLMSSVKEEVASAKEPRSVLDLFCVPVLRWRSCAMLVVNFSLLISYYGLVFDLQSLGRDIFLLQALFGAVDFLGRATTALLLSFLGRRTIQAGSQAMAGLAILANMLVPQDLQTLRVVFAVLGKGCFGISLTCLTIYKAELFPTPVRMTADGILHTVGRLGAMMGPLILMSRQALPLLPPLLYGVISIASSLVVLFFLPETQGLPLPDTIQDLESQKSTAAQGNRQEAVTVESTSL
Protocol: The IC50 values of the compounds in inhibiting reabsorption of specific substrates were determined using MDCK (canine kidney cell) cell line stably transfected with OAT-4 (organic anion transporter-4) gene.
The cell culture medium used in the intake inhibition experiment was DMEM (cell essential medium culture medium) supplemented with 10% FBS (containing penicillin and streptomycin). […] The cell suspensions were adjusted to obtain a density of 2.0-3.0×10^5 cells/mL with medium, and then inoculated into 24-well cell culture plates in an amount of 1 mL/well. The cells were cultured in an incubator with 5% CO2 and saturated air humidity at 37° C. for 2-3 days, after which the cells grew over the wells. […]
The uptake value of the transporter cells in the group containing only the radiolabeled substrate (deducting the uptake value U0 cells with empty vector in the background group) was defined as 100% (control, Uc), which was counted as a standard for the calculation of the percentage (%) of the intake value U (after deducting the background) in each administration group after adding the tested compounds against the intake value Uc in the control group, and the inhibitory rate (IR) of each concentration on the activity of the transporter was calculated to express the extent of the inhibitory effect of the compounds on the transporters. […]

[9] = Liver microsomes, Rat; cited from earlier work
[10] = Liver microsomes, Dog; cited from earlier work
[11] = Liver microsomes, Human; cited from earlier work
[12] = IV, 2 mg/kg, listed as Compound 1b (crystal form C)
[13] = PO, 10 mg/kg, listed as Compound 1b (crystal form C)
[14] = male, cynomolgus monkey, plasma, iv, 2 mg/kg, IV, 2 mg/kg
[15] = male, cynomolgus monkey, plasma, po, 10 mg/kg, PO, 10 mg/kg
[16] = PO, 10 mg/kg, listed as Compound 1a (crystal form B)

O=C(O)CSc1nnc(Br)n1-c1ccc(C2CC2)c2c1C=CC(O)C2O (centres unmarked) [Compound M4]
Amount of lesinurad and metabolites (Total 100) (Liver cells [1]): not detected
Amount of lesinurad and metabolites (Total 100) (Liver cells [2]): not detected
Amount of lesinurad and metabolites (Total 100) (Liver cells [3]): 0.47%
Amount of lesinurad and metabolites (Total 100) (Liver cells [4]): 5.69%
Percentage of the administered dose ([5]; Faeces): 5.0%
Percentage of the administered dose ([5]; Urine): 15.7%

O=C(O)CSc1nnc(Br)n1-c1ccc(C2(O)CC2)c2ccccc12 [Compound M3]
Amount of lesinurad and metabolites (Total 100) [6]: 7.9%
Amount of lesinurad and metabolites (Total 100) (Liver cells [1]): not detected
Amount of lesinurad and metabolites (Total 100) (Liver cells [2]): not detected
Amount of lesinurad and metabolites (Total 100) (Liver cells [3]): 1.45%
Amount of lesinurad and metabolites (Total 100) (Liver cells [4]): 2.24%
Percentage of the administered dose ([5]; Faeces): 0.3%
Percentage of the administered dose ([5]; Urine): 12.0%

O=C(O)CSc1nnc(Br)n1-c1c(Cl)cc(C2CC2)c2ccccc12 (single isomer, unassigned) [Compound 1b]
IC50 (URAT-1): > 20 µM
Metabolite detection (human liver cells): no metabolite was detected
UV area percentage (human liver cells): 100%
Apparent volume of distribution Vdss [7, 12]: 0.661 L/kg
Area under the curve AUG0-inf [7, 12]: 16.092 µM·h
Clearance rate Cl [7, 12]: 4.78 mL/min/kg
Half-life T1/2 [7, 12]: 4.28 h
Residence time MRT0-inf [7, 12]: 2.34 h
C0 ([7]; IV, 2 mg/kg, listed as Compound 1b (crystal form C), 2 mg/kg): 42.1 µM
Area under the curve AUG0-inf [7, 13]: 62.456 µM·h
Bioavailability F [7, 13]: 77.6%
Half-life T1/2 [7, 13]: 4.46 h
Residence time MRT0-inf [7, 13]: 5.74 h
Time to peak Tmax [7, 13]: 2.33 h
Cmax ([7]; PO, 10 mg/kg, listed as Compound 1b (crystal form C), 10 mg/kg): 13.2 µM
Mean drug concentration in urine (0-24 h) Curine, 0-24 h [7, 13]: 7.976 µM
Mutual transformation between the two axially chiral isomers in vivo [7]: no mutual transformation

O=C(O)CSc1nncn1-c1ccc(C2(O)CC2)c2ccccc12 [Compound M5]
Percentage of the administered dose ([5]; Faeces): 3.6%

O=C(O)CSc1nnc(Br)n1-c1c(Cl)cc(C2CC2)c2ccccc12 [Compound 1]
Solid stability (conclusion) [8]: good stability
IC50 (URAT-1): 10.4 µM
Area under the curve AUG0-inf ([7]; IV, 2 mg/kg): 18.389 µM·h
Area under the curve AUG0-inf ([7]; PO, 10 mg/kg): 120.062 µM·h
Mean drug concentration in urine (0-24 h) Curine, 0-24 h ([7]; PO, 10 mg/kg): 38.915 µM
Vd [7, 14]: 1.09 L/kg
clearance [7, 14]: 4.2 mL/min/kg
half-life [7, 14]: 3.61 h
C0 [7, 14]: 42.2 µM
MRT inf [7, 14]: 4.01 h
bioavailability ([7]; male, cynomolgus monkey, plasma, po, 10 mg/kg, PO, 10 mg/kg, read-out: Bioavailability F): 131%
half-life [7, 15]: 3.34 h
Cmax [7, 15]: 46.1 µM
MRT inf [7, 15]: 3.76 h
Tmax [7, 15]: 0.83 h
IC50 (OAT-4; substrate 3H-estrone ammonium sulfate, read-out: IC50 of the inhibition on OAT-4 transporting 3H-ES (3H-estrone ammonium sulfate)): 17.1 µM
IC50 (OAT-4; substrate 14C-uric acid, read-out: IC50 of the inhibition on OAT-4 transporting 14C-UA (14C-uric acid)): 7.92 µM

O=C(O)CSc1nnc(Br)n1-c1ccc(C2CC2)c2ccccc12 (racemic) [(±)-Lesinurad, lesinurad, reference compound]
UV area percentage (human liver cells): 95.60%
Area under the curve AUG0-inf ([7]; PO, 10 mg/kg): 69.3 µM·h
Mean drug concentration in urine (0-24 h) Curine, 0-24 h ([7]; PO, 10 mg/kg): 71.622 µM
half-life [7, 15]: 3.78 h
Cmax [7, 15]: 37.2 µM
MRT inf [7, 15]: 3.44 h
Tmax [7, 15]: 0.58 h
Amount of lesinurad and metabolites (Total 100) [9]: 100%
Amount of lesinurad and metabolites (Total 100) [10]: 100%
Amount of lesinurad and metabolites (Total 100) [6]: 92.1%
Amount of lesinurad and metabolites (Total 100) [11]: 100%
Amount of lesinurad and metabolites (Total 100) (Liver cells [1]): 100%
Amount of lesinurad and metabolites (Total 100) (Liver cells [2]): 100%
Amount of lesinurad and metabolites (Total 100) (Liver cells [3]): 98.1%
Amount of lesinurad and metabolites (Total 100) (Liver cells [4]): 92.1%
Percentage of the administered dose ([5]; Faeces): 1.5%
Percentage of the administered dose ([5]; Urine): 31.3%

O=C(O)CSc1nnc(Br)n1-c1c(Cl)cc(C2CC2)c2ccccc12 (single isomer, unassigned) [Compound 1a]
Metabolite detection (human liver cells): no metabolite was detected
UV area percentage (human liver cells): 100%
Area under the curve AUG0-inf ([7]; IV, 2 mg/kg, listed as Compound 1a (crystal form B)): 15.709 µM·h
Area under the curve AUG0-inf [7, 16]: 89.77 µM·h
Bioavailability F [7, 16]: 132%
Mean drug concentration in urine (0-24 h) Curine, 0-24 h [7, 16]: 54.403 µM
Mutual transformation between the two axially chiral isomers in vivo [7]: no mutual transformation
Vd [7, 14]: 0.533 L/kg
clearance [7, 14]: 4.88 mL/min/kg
half-life [7, 14]: 3.39 h
C0 [7, 14]: 32 µM
MRT inf [7, 14]: 1.83 h
half-life [7, 15]: 4.1 h
Cmax [7, 15]: 22.6 µM
MRT inf [7, 15]: 4.65 h
Tmax [7, 15]: 1.33 h

O=C(O)CSc1nncn1-c1ccc(C2CC2)c2ccccc12 [Compound M2]
Percentage of the administered dose ([5]; Faeces): 4.8%
Percentage of the administered dose ([5]; Urine): 0.3%

Reference: patent US11352331B2, “Crystal and salt of 4-(naphthalen-1-yl)-4H-1,2,4-triazole compound and preparation method therefor” (MEDSHINE DISCOVERY INC., priority 2017, dated 2022)
